Measurements: ChEMBL document CHEMBL3301472, “MMV Malaria Box HIV and cytotoxicity screening”

Key:
[1] = MMV: MTT Cytotoxicity Assay Day 7 pi of Assay #6 (compound washed out Day 1 pi), U87-CD4-CCR5 cells, % cell death @ 5mM compound; format: toxicity, cell-based; details: human, u87-cd4-ccr5, 5000 µM
[2] = MMV: MTT Cytotoxicity Assay Day 7 pi of Assay #10 (NO washout), U87-CD4-CCR5 cells, % cell death @ 5mM compound; format: toxicity, cell-based; details: human, u87-cd4-ccr5, 5000 µM
[3] = tested on: Human immunodeficiency virus 1; experiment: MMV: HIV JRFL CCR5-tropic replication-competent virus, virus & compound washed out Day 1 pi, P24 ELISA Day 7 pi, U87-CD4-CCR5, % inhibition at 5 mM compound; format: functional; parameters: dose or concentration left out as unconfirmed; details: Human immunodeficiency virus 1, JR-FL
[4] = MMV: MTT Cytotoxicity Assay Day 7 pi of Assay #7 (compound washed out Day 1 pi), U87-CD4-CXCR4 cells, % cell death @ 5mM compound; format: toxicity, cell-based; details: human, u87-cd4-cxcr4, 5000 µM
[5] = MMV: MTT Cytotoxicity Assay Day 3 pi, U87-CD4-CCR5 cells, % cell death @ 5mM compound; format: toxicity, cell-based; details: human, u87-cd4-ccr5, 5000 µM
[6] = MMV: MTT Cytotoxicity Assay Day 7 pi of Assay #11 (NO washout), U87-CD4-CXCR4 cells, % cell death @ 5mM compound; format: toxicity, cell-based; details: human, u87-cd4-cxcr4, 5000 µM
[7] = MMV: MTT Cytotoxicity Assay Day 3 pi, U87-CD4-CXCR4 cells, % cell death @ 5mM compound; format: toxicity, cell-based; details: human, u87-cd4-cxcr4, 5000 µM

Row | SMILES | % Cell Death [1] | % Cell Death [2] | inhibition [3] | % Cell Death [4] | % Cell Death [5] | % Cell Death [6] | % Cell Death [7]
1 | CN1CCN(c2ccc(Nc3c4ccccc4nc4ccccc34)cc2)CC1 | 22 | 19 | 6% | -14 | 11 | -32 | 22
2 | COc1ccc(C2c3ccc4ccccc4c3Oc3ncn(CCCN(C)C)c(=N)c32)cc1 (stereo unspecified) | -31 | -3 |  | -12 | 15 | -61 | 39
3 | CCOc1cc(CNC(C)C(O)c2ccccc2)cc(Cl)c1OCC (stereo unspecified) | 32 | 67 |  | 25 | 40 | 73 | 89
4 | Nc1nc(Nc2cccc(F)c2)nc2ccccc12 | -19 | 45 |  | -13 | 42 | 36 | 38
5 | O=C(NC1CCN(Cc2ccccc2)CC1)c1cc2nc(-c3ccc(Cl)s3)cc(C(F)(F)F)n2n1 | -12 | 46 |  | -15 | -2 | 11 | 31
6 | Cc1sc(NC(=O)c2ccccc2)c(C(c2cccs2)N2CCN(c3ccccc3)CC2)c1C (stereo unspecified) | -19 | 95 |  | 4 | -1 | -15 | 45
7 | CCOC(=O)c1c(C)n(-c2ccccc2)c2ccc(OC(=O)c3cc(OC)c(OC)c(OC)c3)cc12 | -12 | 12 |  | 2 | -4 | -19 | 34
8 | O=C(NCC(c1ccsc1)N1CCCCCC1)c1ccc(C(F)(F)F)cc1 (stereo unspecified) | 12 | 19 | 1% | -26 | 10 | 12 | 23
9 | COc1ccc(CCN2C(=O)c3[nH]nc(-c4cc(Cl)c(C)cc4O)c3C2c2ccccc2F)cc1 (stereo unspecified) | -35 | 47 |  | -18 | 19 | -26 | 32
10 | N#Cc1nc(Cc2cccc3ccccc23)oc1N1CCN(C(c2ccccc2)c2ccccc2)CC1 | 78 | 109 |  | 93 | 112 | -30 | 101
11 | O=C(NNc1cc(N2CCCC2)nc(N2CCCC2)n1)c1ccccc1 | 15 | 27 |  | 53 | 61 | 8 | 29
12 | COC(=O)c1ccc(Cl)c2c1C1C=CCC1C(c1cccc3ccccc13)N2 (stereo unspecified) | -5 | -21 |  | -20 | -6 | -34 | 40
13 | COc1ccc(C2c3ccc4ccccc4c3Oc3ncn(CCCn4ccnc4)c(=N)c32)cc1OC (stereo unspecified) | -22 | -6 |  | -25 | 39 | -30 | 38
14 | CN(N=O)C1=C(NC2CCCCC2)C(=O)c2ccccc2C1=O | -53 | 30 |  | 36 | 41 | 15 | 45
15 | OC1=C2C(=Nc3ccccc3SC2c2ccccc2)c2ccccc21 (stereo unspecified) | -22 | -15 |  | 24 | 37 | -20 | 20
16 | COc1ccc(-c2nc(NC(=O)CS(=O)(=O)c3ccc(F)cc3)sc2C)cc1 | -7 | 10 | -1% | 9 | 41 | 71 | 29
17 | CCOc1ccc(N2C(N)=NC(N)=NC2(C)C)cc1.Cl | 56 | 135 |  | 35 | 56 | -36 | 57
18 | COc1cccc(Nc2nc(N)c3ccccc3n2)c1.Cl | 13 | -2 |  | -5 | -31 | -77 | 22
19 | CCCCCCc1cc2cc(-c3csc(C=Cc4ccccc4)n3)c(=O)oc2cc1O | -23 | 24 |  | -39 | 35 | -36 | 41

Row | SMILES | % Cell Death [1] | % Cell Death [2] | inhibition [3] | % Cell Death [4] | % Cell Death [5] | % Cell Death [6] | % Cell Death [7]
20 | CCOc1ccc(CN2CCN(CC(O)COc3ccc(OCC(O)CN4CCN(Cc5ccc(OCC)cc5)CC4)cc3)CC2)cc1 (stereo unspecified) | 65 | 115 |  | 21 | -5 | -7 | 50
21 | COc1ccc(CCn2c(=N)c(C(=O)NCc3cccnc3)cc3c(=O)n4cccc(C)c4nc32)cc1 | 32 | 4 |  | 35 | 1 | 8 | 15
22 | CCOc1ccc2nc(C)cc(Nc3ccc(N(C)C)cc3)c2c1.Cl | -13 | 23 |  | 4 | -27 | 0 | 57
23 | COc1ccc(Nc2cc(C)nc(NCc3ccccc3)n2)cc1 | 30 | 92 |  | 30 | 41 | 73 | 94
24 | Oc1ccc2ccccc2c1CNc1nc2ccccc2[nH]1 | -27 | 36 |  | -22 | 53 | 42 | 32
25 | C=CC12CCN(CC1)C(C(O)c1ccnc3ccc(OC)cc13)C2.Cl (stereo unspecified) | -12 | 27 | -2% | -23 | -14 | -24 | 27
26 | O=C(Nc1ccc(-c2nc3cc(NC(=O)c4ccc(Cl)cc4)ccc3[nH]2)cc1)c1ccc(Cl)cc1 | -14 | -18 |  | -23 | -28 | -10 | 37
27 | OCCNc1nc(Nc2ccc(Cl)c(Cl)c2)nc2ccccc12 | -18 | 51 |  | -3 | 41 | -59 | 30
28 | COc1ccc(C(=O)C(CCC(CNC(C)(C)C)C(=O)c2ccc(OC)cc2)CNC(C)(C)C)cc1 (stereo unspecified) | 27 | 137 |  | 75 | 94 | 105 | 100
29 | COc1cc(-c2nc(-c3ccccc3)c(-c3ccccc3)[nH]2)cc(OC)c1O | 88 | 120 |  | 84 | 104 | 105 | 52
30 | Cc1ccc(Nc2nc(N)c3ccccc3n2)cc1Cl | -17 | -2 |  | -9 | -34 | -31 | 36
31 | Cc1ccc2c(C)nc(Nc3nc(C)cc(-c4ccccc4)n3)nc2c1 | 98 | 114 |  | 97 | 107 | 104 | 99
32 | CCOc1ccc(Nc2ccnc3cc(Cl)ccc23)cc1 | 20 | 72 |  | 47 | 35 | -19 | 78
33 | CCOc1ccc2nc(C)cc(Nc3ccc(Br)cc3)c2c1 | 26 | 108 |  | 72 | 82 | 106 | 64
34 | COc1ccc2sc(N(Cc3cccnc3)C(=O)c3ccc(C#N)cc3)nc2c1 | 2 | 2 |  | -25 | -25 | -31 | 29
35 | CCOC(=O)C1=CN(C)C=C(C(=O)OCC)C1c1cc(Br)c(OCC)c(OC)c1 | 37 | 103 |  | 99 | 80 | 6 | 32
36 | CN1CCN(c2nc(Nc3ccc(O)cc3)nc3ccccc23)CC1.Cl | -8 | 43 |  | -23 | 11 | 110 | 32
37 | CN(C)c1ccc(C(O)(c2ccc(N(C)C)cc2)c2ccc(N(C)C)cc2)cc1 [METHYLROSANILINE] | 3 | 23 |  | -2 | 2 | 71 | 98
